Molecules are shown by their SMILES.

In data set [1] the test system is rats subjected to MCAO. Briefly: Post Stroke Recovery MCAO Model: Gridwalk. The settings on record: 7 and 14 days after stroke. It is filed as in vivo, rat. The source says: Adult male Wistar rats are pre-trained on a battery of behavioral tests including: tray reach, […], forelimb asymmetry (cylinder bracing), forelimb inhibition (swim test) (see below for detailed description of tests). Following pre-stroke behavioral assessment the rats receive surgery during which a stroke is induced. The rats are pseudo-randomly divided into 5 equal groups (n=12) ensuring an equal number of right and left strokes within each treatment group. The first group receives sham surgery with vehicle as treatment. Administration of the test compound and vehicle (dose, route, timing) is determined by the sponsor. The core body temperature is maintained at 37° C. (+/-1°). Following surgery all animals are behaviorally assessed 1, 7, and 14 d post-stroke. At the conclusion of behavioral assessment all rats undergo an MRI to determine infarct volume. […] Rectal temperature is monitored and maintained at 37 C+/-1° C. for the duration of the surgery and until the rat is awake and mobile (approximately 3 hr). […] Forelimb and hindlimb coordination are measured using an apparatus that consists of two Plexiglas panels 1 m long and 25 cm wide (5 mm thick) with holes drilled 1 cm apart along one long edge. […]

For data set [2], the system named is β-catenin. In words: β-catenin induction in brains of MCAO rats (Western blot). It counts as in vivo, rat. The settings on record: all doses, at the termination of the study. The procedure: Hypotonic Lysis Buffer consists of 10 mM HEPES, 10 mM KCL, 1.5 mM MgCl2, 1.0 mM EDTA, 1.0 mM DTT, 1× Roche protease inhibitor cocktail, and 1.0 mM AEBSF Calbiochem protease inhibitor cocktail (cat#539134). All concentrations are final and are diluted in water. First, hypotonic lysis buffer is added to the tissue at 5×'s weight. The tissue is then broken up on ice using the end of a syringe plunger. Next, the samples are freeze-thawed five times. The lysates are then transferred to ultracentrifuge tubes and spun at 100,000 g for 35 min at 4° C. The supernatants are then collected and an aliquot is taken to measure protein with the Pierce BCA protein assay kit (cat#23225), using BSA standard curve. The remaining protein lysates are diluted 1:1 with laemmli sample buffer containing β-mercaptoethanol. The protein concentration is then normalized. The samples are boiled for 5 min at 95° C. followed by a spin at 14,000 rpm in a mini-centrifuge for 1 min. The samples are then snap frozen with dry ice and stored at −20° C. The samples are first loaded on 10% Tris-glycine gel (10 uL/well). […] Induction of β-catenin is determined by comparison of the density of protein band in samples obtained from compound treated animals with that of vehicle treated animals. […] Lysates were analyzed by Western blot (see Example 3) and probed for GSK-3α/β pTYR levels. […]
On the technique in general: A western blot detects proteins with antibodies after separation by electrophoresis.

`Cc1nc(-c2ccccc2Cl)nc(Nc2n[nH]c3ncc(F)cc23)c1C` [Compound I-1, N-(2-(2-chlorophenyl)-5,6-dimethylpyrimidin-4-yl)-5-fluoro-1H-pyrazolo[3,4-b]pyridin-3-amine]: the deficit in gridwalk entry in data set [1] is given as “significantly ameliorated this deficit”. Moreover, the “induction of β-catenin in the brain” value in data set [2] is on record as “no induction of β-catenin”.

The record behind these values is patent US8518953B2, “Aminopyrimidines useful as inhibitors of protein kinases” (Vertex Pharmaceuticals Incorporated, priority 2007, dated 2013).
